Measurements: patent US7449473B2, “Substituted pyrrolo[3,2-d]pyrimidin-2,4-diones as A2b adenosine receptor antagonists” (CV Therapeutics, Inc., priority 2003, dated 2008)

Target: T1, Human A2B adenosine receptor (Homo sapiens, UniProt P29275)
T1 construct: expressed in transfected cells; host or cells: HEK-293 (HEK-A2B), membrane preparation
T1 sequence (P29275 1-332): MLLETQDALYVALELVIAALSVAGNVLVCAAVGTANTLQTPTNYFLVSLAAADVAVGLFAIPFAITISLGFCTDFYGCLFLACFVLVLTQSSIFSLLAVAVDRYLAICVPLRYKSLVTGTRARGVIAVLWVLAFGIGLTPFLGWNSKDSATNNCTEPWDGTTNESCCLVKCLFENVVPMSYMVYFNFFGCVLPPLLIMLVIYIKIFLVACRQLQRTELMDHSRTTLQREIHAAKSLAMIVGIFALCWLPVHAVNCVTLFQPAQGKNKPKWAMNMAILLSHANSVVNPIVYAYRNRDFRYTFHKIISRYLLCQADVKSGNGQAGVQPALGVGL
Assay: Radioligand binding for A2B adenosine receptor (3H-ZM241385 competition, HEK-A2B membranes)
Settings: competition with 10 nM 3H-ZM241385, HEK-A2B cell membranes
Method: Radioligand Binding for A2B Adenosine Receptor.
Human A2B adenosine receptor cDNA was stably transfected into HEK-293 cells (referred to as HEK-A2B cells). Monolayer of HEK-A2B cells were washed with PBS once and harvested in a buffer containing 10 mM HEPES (pH 7.4), 10 mM EDTA and protease inhibitors. These cells were homogenized in polytron for 1 minute at setting 4 and centrifuged at 29000 g for 15 minutes at 4° C. The cell pellets were washed once with a buffer containing 10 mM HEPES (pH7.4), 1 mM EDTA and protease inhibitors, and were resuspended in the same buffer supplemented with 10% sucrose. Frozen aliquots were kept at −80° C. Competition assays were started by mixing 10 nM ^3H-ZM241385 (Tocris Cookson) with various concentrations of test compounds and 50 μg membrane proteins in TE buffer (50 mM Tris and 1 mM EDTA) supplemented with 1 Unit/mL adenosine deaminase. The assays were incubated for 90 minutes, stopped by filtration using Packard Harvester and washed four times with ice-cold TM buffer (10 mM Tris, 1 mM MgCl2, pH 7.4). Non specific binding was determined in the presence of 10 μM ZM241385. The affinities of compounds (i.e. Ki values) were calculated using GraphPad software.

SMILES | Ki [nM]
CCCn1c(=O)c2c(cc(-c3ccccn3)n2O)n(CCC)c1=O [1,3-dipropyl-8-(pyridin-2-yl)-7-hydroxy-1H-pyrrolo[3,2-d]pyrimidine-2,6-dione] | 129
CCCn1c(=O)c2[nH]c(-c3cnn(Cc4ccccc4)c3)cc2n(CCC)c1=O [6-[1-benzylpyrazol-4-yl]-1,3-dipropyl-1,3-dihydropyrrolo[3,2-d]pyrimidine-2,4-dione] | 26
CCCn1c(=O)c2c(cc(-c3cnn(Cc4cccc(C(F)(F)F)c4)c3)n2O)n(CCC)c1=O [8-(1-(3-(trifluoromethyl)benzyl)-1H-pyrazol-4-yl)-7-hydroxy-1,3-dipropyl-1H-pyrrolo[3,2-d]pyrimidine-2,6-dione] | 9
CCCn1c(=O)c2[nH]c(-c3cnn(Cc4cccc(F)c4)c3)cc2n(CCC)c1=O [8-(1-(3-fluorobenzyl)-1H-pyrazol-4-yl)-1,3-dipropyl-1H-pyrrolo[3,2-d]pyrimidine-2,6-dione] | 13
CCCn1c(=O)c2c(cc(-c3cnn(Cc4ccccc4)c3)n2O)n(CCC)c1=O [8-(1-benzyl-1H-pyrazol-4-yl)-7-hydroxy-1,3-dipropyl-1H-pyrrolo[3,2-d]pyrimidine-2,6-dione] | 120
CCCn1c(=O)c2[nH]c(-c3cc[n+]([O-])cc3)cc2n(CCC)c1=O [8-(N-oxypyridin-4-yl)-1,3-dipropyl-1H-pyrrolo[3,2-d]pyrimidine-2,6-dione] | 544
CCCn1c(=O)c2c(cc(-c3ccncc3)n2O)n(CCC)c1=O [8-(pyridin-4-yl)-7-hydroxy-1,3-dipropyl-1H-pyrrolo[3,2-d]pyrimidine-2,6-dione] | 12
